# Results taken from patent US6495171B2, “Interleukin-4 production inhibitors” (Kao Corporation, priority 1999, dated 2002).
# Assays:
# IL-4 production = test: Measurement of IL-4 production inhibiting ability (KLH-stimulated lymphocytes, ELISA); format: cell-based; settings: lymph node lymphocytes of KLH-sensitized Balb/c mice, KLH 10 μg/mL, 3 days, IL-4 in supernatant by ELISA; for IC50: Mus musculus, Lymphocyte, 72 h, read-out: IC50 (concentrations at which IL-4 yields were inhibited by 50%)
# Method: A 4 mg/mL solution of KLH (Keyhole Limpet Hemocyanin; product of Pierce Chemical Company) and Freund complete adjuvant FCA (Bacto Adjuvant Complete Freund; product of DIFCO) were mixed and emulsified at a volume ratio of 1:1. The resulting emulsion was subcutaneously injected at 200 μL/head to the foreleg paws and hind leg paws of Balb/c mice (female, 8 to 12 weeks old), whereby the mice were sensitized. About 7 days later, axillary and popliteal lymph nodes were excised. After the lymph nodes were washed in PBS, they were loosened between two slide glasses in RPMI medium which had been prepared by adding kanamycin and β-mercapto-ethanol to “RPMI 1640 Medium” (product of BRL) such that their final concentrations became 100 μg/mL and 100 μM, respectively, whereby a suspension of lymphocytes was prepared. The lymphocyte suspension was centrifuged twice at 1,000 rpm for 5 minutes, followed by suspension in the RPMI medium added with 10% FCS. The lymphocytes were spread at 4×10^5 lymphocytes/well over 96-well plates. Individual compounds or essential oils, which had been prepared at varied concentrations with 10% FCS-added RMPI medium, were added within a final concentration range of from 0.01 to 100 μg/mL. Subsequent to incubation at 37° C. for about 30 minutes in the presence of 5% CO2, KLH was added to give a final concentration of 10 μg/mL. After incubation at 37° C. for 3 days in the presence of 5% CO2, IL-4 in each supernatant was quantitated by ELISA.
# For the ELISA quantitation, “Mice IL-4 ELISA Kit” (product of Amersham Corp.) was used. Following a protocol attached to the kit, the quantitation was conducted using recombinant IL-4 as a standard substance. IL-4 production inhibition rates of the individual compounds at the varied concentrations were calculated [100-(IL-4 yield when the sample was added/IL-4 yield in a control added only with the culture medium)×100]. From the IL-4 production inhibition rates, IC50 values (concentrations at which IL-4 yields were inhibited by 50%) were determined.
# [1] = system: allergy to house dust mite antigen; test: Effects on allergy to house dust mite antigen (ear swelling); format: in vivo, Balb/c mice; settings: for Swelling inhibition rate (%): 20 μL topically on ear, 24 h after challenge; for inhibitory effects for allergy to the house dust mite antigen (in words): concentrations of 0.1% and 1.0%, statistically significant at 1% or 5% significance level
# Method: Tape stripping was applied 8 times with an adhesive cellophane tape (product of Nichiban Co., Ltd.) to shaved abdominal parts of Balb/c mice (female). The abdominal parts were coated with 50-μL portions of a house dust mite antigen, which had been obtained by dialyzing an allergen scratch extract “DANI” (product of Torii Pharmaceutical Co., Ltd.) and then concentrating the dialyzate ten-fold by ultrafiltration, so that the mice were sensitized. One, four, five and six days later, 20 μL portions of cedrol, cumin oil and cedarwood oil of concentrations shown in Table 2 (prepared by dissolving them in 70% ethanol solution) were topically applied onto one ears, respectively, and the same amount of the solvent control (70% ethanol solution) was applied at the others. Seven days after the sensitization, the mice were challenged on the dorsal ear lobe by subcutaneous injection of 10 μL of the same angiten solution. To measure ear swelling caused by nonspecific stimulation with the house dust mite antigen, 10-μL portions of the house dust mite antigen were subcutaneously injected to one ear lobes of unsensitized mice. Three and twenty hours after the stimulation, the ear lobes of the anesthetized mice were covered with pieces of paper towel soaked with purified water of 40° C., respectively. After that, 20 μL portions of the individual compounds were topically applied to one ears, respectively, while to the other, the same amount of the solvent control were applied. Twenty-four hours after stimulation, the thicknesses of the ears were measured by a thickness gauge, and differences from the thicknesses of the corresponding ears before the stimulation were recorded as ear swellings. Each ear swelling inhibition rate (%) was determined by the following formula: [ear swelling (solvent control)−ear swelling (sample)]/[ear swelling (solvent control)−ear swelling (nonspecific stimulation by the house dust mite antigen)]×100. Differences in swelling between the ear applied with the solvent control and the corresponding ears applied with the samples, respectively, were statistically analyzed by t-test, and any difference with significance level lower than 5% was considered statistically significant.
Compound,IC50 (concentrations at which IL-4 yields were inhibited by 50%) (IL-4 production) [µg/mL],IC50 (IL-4 production) [µg/mL],further results
CC(=O)C1=C(C)[C@@H]2C[C@@]3(C1)[C@H](C)CC[C@H]3C2(C)C [Acetylcedrene],1.60,,
C[C@@H]1CC[C@H]2C(C)(C)[C@H]3C[C@@]12CC[C@@]3(C)O [Cedrol],,3,Swelling inhibition rate (%) ([1]; Concentration 0.01 W/V %): 8%; Swelling inhibition rate (%) ([1]; Concentration 0.10 W/V %): 14%; Swelling inhibition rate (%) ([1]; Concentration 1.00 W/V %): 13%; inhibitory effects for allergy to the house dust mite antigen (in words) [1]: marked effects
CC(=O)O[C@]1(C)CC[C@@]23C[C@@H]1C(C)(C)[C@@H]2CC[C@H]3C [Cedryl acetate],,0.78,
CC(C)=CCCC(C)CCO (stereo not shown) [Citronellol],,37.3,
C=CCc1ccc(O)c(OC)c1 [Eugenol],,5.6,
CC(C)=CCCC(C)=CCCC(C)=CCO [Farnesol],,0.59,
C[C@@H]1CC[C@@H]2[C@@H]1[C@H]1[C@@H](CC[C@@]2(C)O)C1(C)C [Globulol],,1.08,Swelling inhibition rate (%) ([1]; Concentration 0.01 W/V %): 11%; Swelling inhibition rate (%) ([1]; Concentration 0.10 W/V %): 19%; Swelling inhibition rate (%) ([1]; Concentration 1.00 W/V %): 26%; inhibitory effects for allergy to the house dust mite antigen (in words) [1]: marked effects
C[C@H]1CC[C@@H](C(C)(C)O)CC2=C1CC[C@@H]2C [Guaiol],0.68,,
CC(C)c1cccc(=O)c(O)c1 [Hinokitiol],,0.1,
CC1CCC(C(C)C)C(O)C1 (stereo not shown) [Menthol],,19.6,
C[C@H]1CC[C@@]2(O)C(C)(C)[C@@H]3CC[C@@]2(C)[C@H]1C3 [Patchouli alcohol],0.72,,
"CCOCC(O)COc1ccc(NC(=O)CC[S+](C)C)cc1 (stereo not shown) [Suplatast tosilate, reference compound]",,50,
CC1(C)CCC[C@@]2(C)CC[C@](C)(O)CC=C12 [Widdrol],4.00,,
Cedrenol,3.34,,
Epiglobulol,1.14,,
Santalol,2.40,,
Thujopsenol,3.60,,
